According to US9302999B2, “Substituted triazoles as herbicides” (E. I. DU PONT DE NEMOURS AND COMPANY, priority 2012, dated 2016):

How the values were obtained:
Assay type in all cases: in vivo
[1] = test system: sedge, umbrella (small-flower umbrella sedge, Cyperus difformis); assay: Test C flooded paddy test: sedge, umbrella; settings: scale 0 to 100 (0 no effect, 100 complete control)
Procedure, shortened: (§1)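 Plants were grown to the 2-leaf stage, pots flooded to 3 cm above soil, and test compounds applied directly to the paddy water, with that depth held throughout. After 13 to 15 days in a greenhouse, injury was visually rated against controls on a 0 (no effect) to 100 (complete control) scale.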

[2] = test system: foxtail, giant (giant foxtail, Setaria faberii); assay: Test A pre-/postemergence: foxtail, giant; settings: for Foxtail, Giant plant response rating: Postemergence; for Plant response rating, Foxtail, Giant: Preemergence
Procedure, shortened: (§2)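 Injury is scored visually on a scale where 0 means no effect and 100 complete control, comparing treated with untreated plants after approximately ten greenhouse days. Both preemergence and postemergence applications are made at the same time.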

[3] = test system: wheat (Triticum aestivum); assay: Test A pre-/postemergence: wheat; settings: for Wheat plant response rating: Postemergence; for Plant response rating, Wheat: Preemergence
Procedure, shortened: as §2

[4] = test system: rice (Oryza sativa); assay: Test C flooded paddy test: rice; settings: scale 0 to 100 (0 no effect, 100 complete control)
Procedure, shortened: as §1

[5] = test system: morningglory (Ipomoea spp.); assay: Test A pre-/postemergence: morningglory; settings: for Morningglory plant response rating: Postemergence; for Plant response rating, Morningglory: Preemergence
Procedure, shortened: as §2

[6] = test system: corn (Zea mays); assay: Test A pre-/postemergence: corn; settings: for Corn plant response rating: Postemergence; for Plant response rating, Corn: Preemergence
Procedure, shortened: as §2

[7] = test system: velvetleaf (Abutilon theophrasti); assay: Test A pre-/postemergence: velvetleaf; settings: for Velvetleaf plant response rating: Postemergence; for Plant response rating, Velvetleaf: Preemergence
Procedure, shortened: as §2

[8] = test system: pigweed (Amaranthus retroflexus); assay: Test A pre-/postemergence: pigweed; settings: for Pigweed plant response rating: Postemergence; for Plant response rating, Pigweed: Preemergence
Procedure, shortened: as §2

[9] = test system: barnyardgrass (Echinochloa crus-galli); assay: Test A pre-/postemergence: barnyardgrass; settings: for Barnyardgrass plant response rating: Postemergence; for Plant response rating, Barnyardgrass: Preemergence
Procedure, shortened: as §2

[10] = test system: ducksalad (Heteranthera limosa); assay: Test C flooded paddy test: ducksalad; settings: scale 0 to 100 (0 no effect, 100 complete control)
Procedure, shortened: as §1

[11] = test system: barnyardgrass (Echinochloa crus-galli); assay: Test C flooded paddy test: barnyardgrass; settings: scale 0 to 100 (0 no effect, 100 complete control)
Procedure, shortened: as §1

[12] = test system: crabgrass, large (large crabgrass, Digitaria sanguinalis); assay: Test A pre-/postemergence: crabgrass, large; settings: for Crabgrass, Large plant response rating: Postemergence; for Plant response rating, Crabgrass, Large: Preemergence
Procedure, shortened: as §2

[13] = Flood (flooded paddy test), 62 g ai/ha, visual rating after 13 to 15 days
[14] = Flood (flooded paddy test), 125 g ai/ha, visual rating after 13 to 15 days
[15] = Flood (flooded paddy test), 250 g ai/ha, visual rating after 13 to 15 days
[16] = 125 g ai/ha, 0 to 100 scale, 0 is no effect, 100 is complete control
[17] = 500 g ai/ha, visual rating on 0 to 100 scale (0 no effect, 100 complete control), approximately ten days
[18] = 125 g ai/ha, 0 to 100 scale (0 no effect, 100 complete control)
[19] = 500 g ai/ha, 0 to 100 scale, 0 is no effect, 100 is complete control

## Cc1nn(-c2ccc(I)cc2)nc1C(=O)c1cccc(C(F)(F)F)c1 [Compound 61]
[1]; [13]
  Plant response rating, Sedge, Umbrella: 0
[1]; [14]
  Plant response rating, Sedge, Umbrella: 0
[1]; [15]
  Plant response rating, Sedge, Umbrella: 0
[1]; Flood, 31 g ai/ha
  Plant response rating, Sedge, Umbrella: 0
[2]; [16]
  Foxtail, Giant plant response rating: 0
[2]; [17]
  Foxtail, Giant plant response rating: 10
[2]; [18]
  Plant response rating, Foxtail, Giant: 0
[2]; [19]
  Plant response rating, Foxtail, Giant: 10
[3]; [16]
  Wheat plant response rating: 0
[3]; [17]
  Wheat plant response rating: 0
[3]; [18]
  Plant response rating, Wheat: 0
[3]; [19]
  Plant response rating, Wheat: 0
[4]; [13]
  Plant response rating, Rice: 0
[4]; [14]
  Plant response rating, Rice: 0
[4]; [15]
  Plant response rating, Rice: 0
[4]; Flood, 31 g ai/ha
  Plant response rating, Rice: 0
[5]; [16]
  Morningglory plant response rating: 10
[5]; [17]
  Morningglory plant response rating: 30
[5]; [18]
  Plant response rating, Morningglory: 0
[5]; [19]
  Plant response rating, Morningglory: 0
[6]; [16]
  Corn plant response rating: 10
[6]; [17]
  Corn plant response rating: 10
[6]; [18]
  Plant response rating, Corn: 0
[6]; [19]
  Plant response rating, Corn: 0
[7]; [16]
  Velvetleaf plant response rating: 10
[7]; [17]
  Velvetleaf plant response rating: 30
[7]; [18]
  Plant response rating, Velvetleaf: 0
[7]; [19]
  Plant response rating, Velvetleaf: 0
[8]; [16]
  Pigweed plant response rating: 40
[8]; [17]
  Pigweed plant response rating: 80
[8]; [18]
  Plant response rating, Pigweed: 0
[8]; [19]
  Plant response rating, Pigweed: 10
[9]; [16]
  Barnyardgrass plant response rating: 0
[9]; [17]
  Barnyardgrass plant response rating: 10
[9]; [18]
  Plant response rating, Barnyardgrass: 0
[9]; [19]
  Plant response rating, Barnyardgrass: 0
[10]; [13]
  Plant response rating, Ducksalad: 0
[10]; [14]
  Plant response rating, Ducksalad: 0
[10]; [15]
  Plant response rating, Ducksalad: 0
[10]; Flood, 31 g ai/ha
  Plant response rating, Ducksalad: 0
[11]; [13]
  Plant response rating, Barnyardgrass: 0
[11]; [14]
  Plant response rating, Barnyardgrass: 0
[11]; [15]
  Plant response rating, Barnyardgrass: 0
[11]; Flood, 31 g ai/ha
  Plant response rating, Barnyardgrass: 0
[12]; [16]
  Crabgrass, Large plant response rating: 0
[12]; [17]
  Crabgrass, Large plant response rating: 10
[12]; [18]
  Plant response rating, Crabgrass, Large: 0
[12]; [19]
  Plant response rating, Crabgrass, Large: 10

## Cc1nn(-c2cccc([N+](=O)[O-])c2)nc1C(=O)c1cccc(C(F)(F)F)c1 [Compound 62]
[1]; [13]
  Plant response rating, Sedge, Umbrella: 0
[1]; [14]
  Plant response rating, Sedge, Umbrella: 0
[1]; [15]
  Plant response rating, Sedge, Umbrella: 0
[1]; Flood, 31 g ai/ha
  Plant response rating, Sedge, Umbrella: 0
[2]; [16]
  Foxtail, Giant plant response rating: 0
[2]; [17]
  Foxtail, Giant plant response rating: 0
[2]; [18]
  Plant response rating, Foxtail, Giant: 0
[2]; [19]
  Plant response rating, Foxtail, Giant: 0
[3]; [16]
  Wheat plant response rating: 0
[3]; [17]
  Wheat plant response rating: 0
[3]; [18]
  Plant response rating, Wheat: 0
[3]; [19]
  Plant response rating, Wheat: 0
[4]; [13]
  Plant response rating, Rice: 0
[4]; [14]
  Plant response rating, Rice: 0
[4]; [15]
  Plant response rating, Rice: 0
[4]; Flood, 31 g ai/ha
  Plant response rating, Rice: 0
[5]; [16]
  Morningglory plant response rating: 0
[5]; [17]
  Morningglory plant response rating: 0
[5]; [18]
  Plant response rating, Morningglory: 0
[5]; [19]
  Plant response rating, Morningglory: 0
[6]; [16]
  Corn plant response rating: 0
[6]; [17]
  Corn plant response rating: 0
[6]; [18]
  Plant response rating, Corn: 0
[6]; [19]
  Plant response rating, Corn: 0
[7]; [16]
  Velvetleaf plant response rating: 0
[7]; [17]
  Velvetleaf plant response rating: 0
[7]; [18]
  Plant response rating, Velvetleaf: 0
[7]; [19]
  Plant response rating, Velvetleaf: 0
[8]; [16]
  Pigweed plant response rating: 0
[8]; [17]
  Pigweed plant response rating: 10
[8]; [18]
  Plant response rating, Pigweed: 0
[8]; [19]
  Plant response rating, Pigweed: 0
[9]; [16]
  Barnyardgrass plant response rating: 0
[9]; [17]
  Barnyardgrass plant response rating: 10
[9]; [18]
  Plant response rating, Barnyardgrass: 0
[9]; [19]
  Plant response rating, Barnyardgrass: 0
[10]; [13]
  Plant response rating, Ducksalad: 0
[10]; [14]
  Plant response rating, Ducksalad: 0
[10]; [15]
  Plant response rating, Ducksalad: 0
[10]; Flood, 31 g ai/ha
  Plant response rating, Ducksalad: 0
[11]; [13]
  Plant response rating, Barnyardgrass: 0
[11]; [14]
  Plant response rating, Barnyardgrass: 0
[11]; [15]
  Plant response rating, Barnyardgrass: 0
[11]; Flood, 31 g ai/ha
  Plant response rating, Barnyardgrass: 0
[12]; [16]
  Crabgrass, Large plant response rating: 0
[12]; [17]
  Crabgrass, Large plant response rating: 0
[12]; [18]
  Plant response rating, Crabgrass, Large: 0
[12]; [19]
  Plant response rating, Crabgrass, Large: 0
